The results in this text go back to patent publication US6218393A, “Anthranilic acid derivatives as multi drug resistance modulators” (priority 1997, dated 2001).

By IC50 is commonly meant the concentration that gives 50% inhibition. Higher therefore signals a need for much substance.

Each structure is given as a SMILES string. Some results are limits rather than exact numbers.

The assay has as its system AR 1.0 cells. Nature of the assay: Drug accumulation assay: daunorubicin accumulation in AR 1.0 cells. The following applies: Mus musculus, 100% = accumulation with verapamil 100 μM, 1 hr, 37° C. It counts as cell-based. As for the experimental part: The EMT6 mouse mammary carcinoma cell line and the MDR resistant subline AR 1.0 were cultured in RPMI 1640 medium containing 10% foetal calf serum and 2 mM glutamine at 37° C. in 5% CO2. Cells were passaged between 1 in 200 and 1 in 2000 in the case of the parental cell line and between 1 in 20 and 1 in 200 in the case of the MDR resistant subline, after trypsinisation (0.25% trypsin, 0.2 gl^-1, EDTA).
AR 1.0 cells were seeded 48 hours prior to assay into 96 well opaque culture plates (Canberra Packard).

Take `COc1cc2c(cc1OC)CN(CCNC(=O)c1cccc(OC)c1NC(=O)c1ccc(C(C)C)cc1)CC2` [compound 9399, 2-(4-Isopropyl-benzoylamino)-N-[2-(6,7-dimethoxy-3,4-dihydro-1H-isoquinolin-2-yl)-ethyl]-3-methoxy-benzamide]: half-maximal inhibition (IC50) was put at 5 µM.
The same measure for `COc1cc2c(cc1OC)CN(CC(C)c1ccc(NC(=O)c3ccccc3NC(=O)c3cnc4ccccc4c3)cc1)CC2` (stereo not drawn) [compound 9654, Quinoline-3-carboxylic acid (2-{4-[2-(6,7-dimethoxy-3,4-dihydro-1H-isoquinolin-2-yl)-1-methyl-ethyl]-phenylcarbamoyl}-phenyl)-amide]: 0.135 µM; for `COc1cc2c(cc1OC)CN(CCNC(=O)c1ccccc1NC(=O)c1ccccn1)CC2` [compound 9377, Pyridine-2-carboxylic acid {2-[2-(6,7-dimethoxy-3,4-dihydro-1H-isoquinolin-2-yl)-ethylcarbamoyl]-phenyl}-amide]: 5.5 µM; for `COc1cc2c(cc1OC)CN(CCNC(=O)c1ccccc1NC(=O)c1ccncc1)CC2` [compound 9384, N-{2-[2-(6,7-Dimethoxy-3,4-dihydro-1H-isoquinolin-2-yl)-ethylcarbamoyl]-phenyl}-isonicotinamide]: over 10 µM.
For `COc1cc2c(cc1OC)CN(CCc1ccc(NC(=O)c3ccccc3NC(=O)c3cc4ccccc4[nH]3)cc1)CC2` [compound 9515, 1H-Indole-2-carboxylic acid (2-{4-[2-(6,7-dimethoxy-3,4-dihydro-1H-isoquinolin-2-yl)-ethyl}-phenylcarbamoyl}-phenyl)-amide], the concentration for half-maximal inhibition (IC50) was determined as 1.2 µM. That is a single-digit micromolar value.
The same measure for `COc1cc2c(cc1OC)CN(CCc1ccc(NC(=O)c3ccccc3NC(=O)c3ccccc3C(F)(F)F)cc1)CC2` [compound 9523, 2-(2-Trifluoromethyl-benzoylamino)-N-{4-[2-(6,7-dimethoxy-3,4-dihydro-1H-isoquinolin-2-yl)-ethyl]-phenyl}-benzamide]: 1.6 µM; for `COc1cc2c(cc1OC)CN(CCc1ccc(NC(=O)c3ccccc3NC(=O)c3ccc(O)cc3)cc1)CC2` [compound 9559, 2-(4-Hydroxy-benzoylamino)-N-{4-[2-(6,7-dimethoxy-3,4-dihydro-1H-isoquinolin-2-yl)-ethyl]-phenyl}-benzamide]: 2.06 µM.
As for `COc1ccc(CN(C)CCc2ccc(NC(=O)c3ccc([N+](=O)[O-])cc3NC(=O)c3cnc4ccccc4c3)cc2)cc1OC` [compound 9677, Quinoline-3-carboxylic acid [2-(4-{2-[(3,4-dimethoxy-benzyl)-methyl-amino]-ethyl}-phenylcarbamoyl)-5-nitro-phenyl]-amide], the figure is 0.169 µM; as for `COc1cc2c(cc1OC)CN(CCNC(=O)c1cccc(Cl)c1NC(=O)c1ccc(C(C)C)cc1)CC2` [compound 9401, 2-(4-Isopropyl-benzoylamino)-N-[2-(6,7-dimethoxy-3,dihydro-1H-isoquinolin-2-yl)-ethyl]-3-chioro-benzamide], 3 µM; as for `COc1cc2c(cc1OC)CN(CCc1ccc(NC(=O)c3ccccc3NC(=O)c3cc4ccccc4nc3Cl)cc1)CC2` [compound 9591, 2-Chloro-quinoline-3-carboxylic acid (2-{4-[2-(6,7-dimethoxy-3,4-dihydro-1H-isoquinolin-2-yl)-ethyl]-phenylcarbamoyl}-phenyl)-amide], 0.425 µM.
As for `O=C(Nc1ccccc1C(=O)Nc1ccc(CCN2CCc3ccc(Cl)c(Cl)c3C2)cc1)c1cnc2ccccc2c1` [compound 9629, Quinoline-3-carboxylic acid (2-{4-[2-(7,8-dichloro-3,4-dihydro-1H-isoquinolin-2-yl)-ethyl]-phenylcarbamoyl}-phenyl)-amide], the figure is over 10 µM; as for `COc1cc2c(cc1OC)CN(CCNC(=O)c1ccc(Cl)cc1NC(=O)c1ccc(C(C)C)cc1)CC2` [compound 9350, 2-(4-Isopropyl-benzoylamino)-N-[2-(6,7-dimethoxy-3,4-dihydro-1H-isoquinolin-2-yl)-ethyl]-4-chioro-benzamide], 0.8 µM; as for `COc1cc2c(cc1OC)CN(CCc1cccc(NC(=O)c3ccccc3NC(=O)c3cnc(C)cn3)c1)CC2` [compound 9653, 5-Methyl-pyrazine-2-carboxylic acid (2-{3-[2-(6,7-dimethoxy-3,4-dihydro-1H-isoquinolin-2-yl)-ethyl]-phenylcarbamoyl}-phenyl)-amide], 0.49 µM.
Compound `COc1ccc(CN(C)CCc2ccc(NC(=O)c3cc(F)c(F)cc3NC(=O)c3cnc4ccccc4c3)cc2)cc1OC` [compound 9667, Quinoline-3-carboxylic acid [2-(4-{2-[(3,4-dimethoxy-benzyl)-methyl-amino]-ethyl}-phenylcarbamoyl)-4,5-difiuoro-phenyl]-amide] returned a half-inhibitory concentration (IC50) of 0.076 µM.
The same measure for `COc1cc2c(cc1OC)CN(CCc1ccc(NC(=O)c3ccccc3NC(=O)c3ccoc3)cc1)CC2` [compound 9526, Furan-3-carboxylic acid (2-{4-[2-(6,7-dimethoxy-3,4-dihydro-1H-isoquinolin-2-yl)-ethyl]-phenylcarbamoyl}-phenyl)-amide]: 1.4 µM.
As for `COc1cc2c(cc1OC)CN(CCc1ccc(NC(=O)c3ccccc3NC(=O)c3cccc(N(C)C)c3)cc1)CC2` [compound 9556, 2-(3-Dimethylamino-benzoylamino)-N-{4-[2-(6,7-dimethoxy-3,4-dihydro-1H-isoquinolin-2-yl)-ethyl]-phenyl}-benzamide], the figure is 0.86 µM; as for `COc1cc2c(cc1OC)CN(CCc1ccc(NC(=O)c3ccccc3NC(=O)c3cnccn3)c(C)c1)CC2` [compound 9658, Pyrazine-2-carboxylic acid (2-{4-[2-(6,7-dimethoxy-3,4-dihydro-1H-isoquinolin-2-yl)-ethyl]2-methyl-phenylcarbamoyl}-phenyl)-amide], 2.9 µM; as for `COc1cc2c(cc1OC)CN(CCNC(=O)c1cccc(C)c1NC(=O)c1ccc(C(C)C)cc1)CC2` [compound 9398, 2-(4-Isopropyl-benzoylamino)-N-[2-(6,7-dimethoxy-3,4-dihydro-1H-isoquinolin-2-yl)-ethyl]-3-methyl-benzamide], 1.5 µM.
The same measure for `COc1cc(CCN2CCc3cc(OC)c(OC)cc3C2)ccc1NC(=O)c1ccccc1NC(=O)c1cnc(C)cn1` [compound 9657, 5-Methyl-pyrazine-2-carboxylic acid (2-{4-[2-(6,7-dimethoxy-3,4-dihydro-1H-isoquinolin-2-yl)-ethyl]-2-methoxy-phenylcarbamoyl}-phenyl)-amide]: 0.343 µM.
`COc1cc2c(cc1OC)CN(CCc1ccc(NC(=O)c3ccccc3NC(=O)c3cnc4ccccc4c3O)cc1)CC2` [compound 9606, 4-Hydroxy-quinoline-3-carboxylic acid (2-{4-[2-(6,7-dimethoxy-3,4-dihydro-1H-isoquinolin-2-yl)-ethyl]-phenylcarbamoyl}-phenyl)-amide]: the IC50 was over 10 µM.
The same measure for `CCCCOc1cc(CN(C)CCc2ccc(NC(=O)c3cc(OC)c(OC)cc3NC(=O)c3cnc4ccccc4c3)cc2)ccc1OC` [compound 9656, Quinoline-3-carboxylic acid [2-(4-{2-[(3-butoxy-4-methoxy-benzyl)-methyl-amino]-ethyl}-phenylcarbamoyl)-4,5-dimethoxy-phenyl]-amide]: 0.188 µM; for `COc1cc2c(cc1OC)CN(CCNC(=O)c1ccccc1NC(=O)c1cccnc1)CC2` [compound 9359, N-{2-[2-(6,7-Dimethoxy-3,4-dihydro-1H-isoquinolin-2-yl)-ethylcarbamoyl]-phenyl}-nicotinamide]: over 10 µM; for `COc1cc2c(cc1OC)CN(CCNC(=O)c1ccccc1NC(=O)c1cnc3ccccc3c1)CC2` [compound 9397, Quinoline-3-carboxylic acid {2-[2-(6,7 dimethoxy-3,4-dihydro-1H-isoquinolin-2-yl)-ethylcarbamoyl]-phenyl}-amide]: 10 µM.
The same measure for `COc1cc2c(cc1OC)CN(CCNC(=O)c1ccccc1NC(=O)c1cnccn1)CC2` [compound 9391, Pyrazine-2-carboxylic acid {2-[2-(6,7-dimethoxy-3,4-dihydro-1H-isoquinolin-2-yl)-ethylcarbamoyl]-phenyl}-amide]: over 10 µM.
As for `COc1ccc(CN(C)CCc2ccc(NC(=O)c3ccc(C)cc3NC(=O)c3cnc4ccccc4c3)cc2)cc1OC` [compound 9668], the figure is 0.087 µM.
Regarding `COc1cc2c(cc1OC)CN(CCc1ccc(NC(=O)c3ccccc3NC(=O)c3ccc(F)cc3F)cc1)CC2` [compound 9513, 2-(2,4-Difluoro-benzoylamino)-N-{4-[2-(6,7-dimethoxy-3,4-dihydro-1H-isoquinolin-2-yl)-ethyl]-phenyl}-benzamide], the IC50 came out at 0.2 µM.
`COc1cc2c(cc1OC)CN(CCc1ccc(NC(=O)c3ccccc3NC(=O)c3cccc(C(F)(F)F)c3)cc1)CC2` [compound 9524]: the IC50 amounted to 1 µM.
The same measure for `O=C(Nc1ccccc1C(=O)Nc1ccc(CCN2CCc3cc(Cl)c(Cl)cc3C2)cc1)c1cnc2ccccc2c1` [compound 9628, Quinoline-3-carboxylic acid (2-{4-[2-(6,7-dichloro-3,4-dihydro-1H-isoquinolin-2-yl)-ethyl]-phenylcarbamoyl}-phenyl)-amide]: 2.27 µM; for `COc1ccc(C(=O)Nc2ccccc2C(=O)Nc2ccc(CCN3CCc4cc(OC)c(OC)cc4C3)cc2)cn1` [compound 9582, N-(2-{4-[2-(6,7-Dimethoxy-3,4-dihydro-1H-isoquinolin-2-yl)-ethyl]-phenylcarbamoyl}-phenyl)-6-methoxy-nicotinamide]: 1.27 µM.
The same measure for `O=C(Nc1ccccc1C(=O)NCCN1CCc2ccccc2C1)c1ccc(C2CCCCC2)cc1` [compound 9479, 2-(4-Cyclohexyl-benzoylamino)-N-[2-(3,4-dihydro-1H-isoquinolin-2-yl)-ethyl]-benzamide]: 2.1 µM.
